One experiment addresses T1, collagenase (Homo sapiens, UniProt P03956).
T1 sequence (P03956 100-469): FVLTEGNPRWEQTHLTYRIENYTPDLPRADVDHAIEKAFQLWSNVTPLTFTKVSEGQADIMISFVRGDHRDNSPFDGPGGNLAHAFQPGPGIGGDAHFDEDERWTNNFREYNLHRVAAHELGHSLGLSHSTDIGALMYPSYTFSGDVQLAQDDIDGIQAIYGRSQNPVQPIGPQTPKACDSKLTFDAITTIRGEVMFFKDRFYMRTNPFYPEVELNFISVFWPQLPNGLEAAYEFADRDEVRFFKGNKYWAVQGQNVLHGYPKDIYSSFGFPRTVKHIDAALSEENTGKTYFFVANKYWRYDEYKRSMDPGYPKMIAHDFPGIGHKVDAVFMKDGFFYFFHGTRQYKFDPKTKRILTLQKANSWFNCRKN
Briefly: Collagenase Inhibition Activity (procedure of Cawston and Barrett). The class given is biochemical. To be noted: for IC50: acetylated 14C collagen, 37°, 16 hours, pH 7.5, read-out: IC50 (inhibitor concentration effecting 50% inhibition of the collagenase).

In a further experiment the target is stromelysin (Homo sapiens, UniProt P08254). Briefly: Stromelysin Inhibition Activity (procedure of Cawston et al). Type of experiment: biochemical. To be noted: for protoglycanase inhibiting activity, in words: protoglycanase = stromelysin (b7). Here is the method:
The potency of compounds of general formula I to act as inhibitors of collagenase (a metalloprotease involved in tissue degradation) was determined by the procedure of Cawston and Barrett, (Anal. Biochem., 99, 340-345, 1979) and their potency to act as inhibitors of stromelysin was determined using the procedure of Cawston et al (Biochem. J., 195, 159-165 1981), both of which techniques are to be described more fully in the examples and, to the extent that the law allows, are incorporated by reference herein.

Molecules are shown by their SMILES.

Sequence of stromelysin (P08254 100-477): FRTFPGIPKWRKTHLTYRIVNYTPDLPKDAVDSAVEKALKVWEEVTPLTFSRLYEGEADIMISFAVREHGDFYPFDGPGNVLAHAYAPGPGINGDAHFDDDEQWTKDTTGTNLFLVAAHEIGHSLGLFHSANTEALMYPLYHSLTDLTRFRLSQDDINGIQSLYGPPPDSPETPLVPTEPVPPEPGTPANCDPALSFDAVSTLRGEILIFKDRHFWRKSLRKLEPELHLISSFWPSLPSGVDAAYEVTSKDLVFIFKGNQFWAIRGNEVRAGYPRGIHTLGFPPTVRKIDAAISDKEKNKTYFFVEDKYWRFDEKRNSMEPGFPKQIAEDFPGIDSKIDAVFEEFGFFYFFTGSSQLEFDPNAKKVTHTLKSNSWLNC

In the case of `CC(C)C[C@H](CC(=O)NO)C(=O)N[C@@H](Cc1ccccc1)C(=O)NCCN1CCCC1` [Example 3, [4-(N-Hydroxyamino)-2R-isobutylsuccinyl]-L-phenylalanine-N-[1-(2-aminoethyl)-pyrrolidine]amide], the IC50 at collagenase stood at 70 nM.

Take `CC(C)C[C@H](CC(=O)NO)C(=O)N[C@@H](Cc1ccccc1)C(=O)NCc1cccnc1` [Example 6, [4-(N-Hydroxyamino)-2R-isobutylsuccinyl]-L-phenylalanine-N-(3-aminomethylpyridine)amide]: on collagenase, the “collagenase-inhibiting activity, in words” value is reported as “good” and the IC50 came to 20 nM. The “protoglycanase inhibiting activity, in words” value on stromelysin is reported as “good”.

Take `CC(C)C[C@@H](C(=O)N[C@@H](Cc1ccccc1)C(=O)NCCN1CCOCC1)[C@H](C)C(=O)NO` [Example 11, [4-(N-Hydroxyamino)-2R-isobutyl-3S-methylsuccinyl]-L-phenylalanine-N-[4-(2-aminoethyl)-morpholino]amide]: on collagenase, the “collagenase-inhibiting activity, in words” value is “good” and the IC50 turned out to be 15 nM. The IC50 on stromelysin (14C acetylated casein, 37° C., 16 hours, pH 7.5, read-out: IC50 (inhibitor concentration effecting 50% inhibition of the stromelysin)) worked out at 50 nM. The “protoglycanase inhibiting activity, in words” value on stromelysin is “good”.

(Values after patent US5304604A, “Hydroxamic acid collagenase inhibotors” (British Bio-technology Limited, priority 1988, dated 1994).)
